{"source": "patent EP1688137A1", "about": "“SPM 927 for add-on therapy of schizophrenia” (SCHWARZ PHARMA AG, priority 2005, dated 2006)", "tested_on": "C57BL/6J mice", "test": "prepulse inhibition (PPI) of the acoustic startle reflex, animal model for schizophrenia", "format": "in vivo", "details": "30 min prior to testing, n=12", "method": "Some anti-epileptic drugs have proven pre-clinical and/or clinical efficacy as add-on therapy for schizophrenia. SPM 927 was tested in a simple animal model with predictive validity for schizophrenia (i.e. prepulse inhibition (PPI) of the acoustic startle reflex). SPM 927 was tested alone and in combination with the atypical antipsychotic drug clozapine.\nThe acoustic startle is an unconditioned reflex response to an external auditory stimulation. PPI refers to the reduction in the startle response caused by the presentation of a low-intensity auditory stimulus prior to the startle stimulus. The PPI paradigm is the choice for the study of schizophrenia and antipsychotic action due to the similarities between the results from human and rodent studies. Antipsychotic drugs, such as clozapine, result in a dose-dependent increase in PPI in mice. Thus, an increase of PPI in normal mice may be indicative of antipsychotic efficacy.\nC57BL/6J mice obtained from the Jackson Laboratory, Bar Harbor, Maine were received at the age of 6 weeks and were assigned unique identification numbers (tail marked). Animals were housed 4 per cage in polycarbonate cages with filter tops and acclimated for 7 days. All animals were examined, handled, and weighed prior to initiation of the study to assure adequate health and suitability and to minimize non-specific stress associated with manipulation.\nDuring the course of the study, 12/12 light/dark cycles and a room temperature of 20 to 23°C were maintained with a relative humidity maintained around 50%. Chow and water were provided ad libitum for the duration of the study. Each mouse was randomly assigned across the treatment groups and balanced by cage numbers. The test was performed during the animal's light cycle phase. Twelve animals were used in each treatment group.\nSPM 927 was dissolved in Saline (0.9% NaCl in sterile H2O). Clozapine was dissolved in 1 % Tween 80 in sterile H2O at a final pH of 6.0. All compounds were administered intraperitoneal (ip) (volume injection: 10 ml/kg). SPM 927 was administered at doses of 1, 10 and 30 mg/kg and Clozapine at a dose of 3 mg/kg. Doses are expressed as mg of salt. Control mice were administered saline (vehicle 1, VEH 1) or 1% Tween 80 (vehicle 2, VEH 2) at a pH of 6.0. The drug treatments were balanced across days and the animals only used once. All tests were conducted blind. All compounds were administered 30 mins prior to testing.\nAnimals were placed in the PPI chambers (Med Associates) for a 5 min session of white noise (70 dB) habituation. After the acclimation period the test session was automatically started. The session started with an habituation block of 6 presentations of the startle stimulus alone, followed by 10 PPI blocks of 6 different types of trials. Trial types are: null (no stimuli), startle (120 dB), startle plus prepulse (4, 8 and 12 dB over background noise i.e. 74, 78 or 82 dB) and prepulse alone (82 dB). Trial types were presented at random within each block. Each trial started with a 50 ms null period during which baseline movements are recorded. There was a subsequent 20 ms period during which prepulse stimuli were presented and responses to the prepulse measured. After further 100 ms the startle stimuli were presented for 40 ms and responses recorded for 100 ms from startle onset. Responses were sampled every ms. The inter-trial interval was variable with an average of 15 s (range from 10 to 20 s). In startle alone trials the basic auditory startle is measured and in prepulse plus startle trials the amount of inhibition of the normal startle is determined and expressed as a percentage of the basic startle response (from startle alone trials), excluding the startle response of the first habituation block. Eight animals were tested at one time.\nTwelve animals were tested in each group. […]"}
{"smiles": "CN1CCN(C2=Nc3cc(Cl)ccc3Nc3ccccc32)CC1", "note": "[CLOZ, clozapine, reference compound]", "values": [{"measurement": "Mean PPI", "setting": "VEH 1 / clozapine 3 mg/kg ip, PPI expressed as percentage of basic startle response", "result": "45±2"}]}
{"smiles": "COC[C@@H](NC(C)=O)C(=O)NCc1ccccc1", "note": "[SPM 927, (R)-2-acetamide-N-benzyl-3-methoxypropionamide]", "values": [{"measurement": "Mean PPI", "setting": "SPM 927 3 mg/kg ip / VEH 2 (alone)", "result": "29±3"}, {"measurement": "Mean PPI", "setting": "SPM 927 3 mg/kg ip in combination with clozapine 3 mg/kg ip", "result": "43±2"}, {"measurement": "Mean PPI", "setting": "SPM 927 10 mg/kg ip / VEH 2 (alone)", "result": "34±3"}, {"measurement": "Mean PPI", "setting": "SPM 927 10 mg/kg ip in combination with clozapine 3 mg/kg ip", "result": "45±2"}, {"measurement": "Mean PPI", "setting": "SPM 927 30 mg/kg ip / VEH 2 (alone)", "result": "27±2"}, {"measurement": "Mean PPI", "setting": "SPM 927 30 mg/kg ip in combination with clozapine 3 mg/kg ip", "result": "57±5"}]}
